Reference: US20050038074A1, “Mitotic kinesin inhibitors” (priority 2003, published 2005)

Biological target: T1, human KSP motor domain (KSP(367H)) (Homo sapiens, UniProt P52732)
T1 construct: were used to amplify the motor domain and the neck linker region; made in house; host or cells: E. coli BL21 (DE3)
T1 sequence (P52732 18-359 limits assumed): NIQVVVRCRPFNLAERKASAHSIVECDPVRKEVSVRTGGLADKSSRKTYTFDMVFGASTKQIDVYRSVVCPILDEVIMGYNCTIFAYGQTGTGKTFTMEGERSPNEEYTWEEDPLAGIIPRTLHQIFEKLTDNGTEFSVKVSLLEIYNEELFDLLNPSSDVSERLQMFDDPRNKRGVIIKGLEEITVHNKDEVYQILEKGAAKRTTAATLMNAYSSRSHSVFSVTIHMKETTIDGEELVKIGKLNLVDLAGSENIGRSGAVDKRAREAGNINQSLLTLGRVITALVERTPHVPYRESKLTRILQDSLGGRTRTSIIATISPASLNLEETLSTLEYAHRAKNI
Assay: Kinesin ATPase In Vitro Assay
Assay type: biochemical
Conditions: kinesin motor domain with microtubules, 1 mM ATP, 23° C.; free phosphate by quinaldine red/ammonium molybdate
From the text: I. Kinesin ATPase In Vitro Assay
Cloning and Expression of Human Poly-Histidine Tagged KSP Motor Domain (KSP(367H))
Plasmids for the expression of the human KSP motor domain construct were cloned by PCR using a pBluescript full length human KSP construct (Blangy et al., Cell, vol.83, pp1159-1169, 1995) as a template. The N-terminal primer 5′-[…] (SEQ.ID.NO.: 1) and the C-terminal primer 5′-[…] […] (SEQ.ID.NO.: 2) were used to amplify the motor domain and the neck linker region. The PCR products were digested with AseI and XhoI, ligated into the NdeI/XhoI digestion product of pRSETa (Invitrogen) and transformed into E. coli BL21 (DE3).
Cells were grown at 37° C. to an OD600 of 0.5. After cooling the culture to room temperature expression of KSP was induced with 100 μM IPTG and incubation was continued overnight. Cells were pelleted by centrifugation and washed once with ice-cold PBS. Pellets were flash-frozen and stored −80° C.
Cell pellets were thawed on ice and resuspended in lysis buffer (50 mM K-HEPES, pH 8.0, 250 mM KCl, 0.1% Tween, 10 mM imidazole, 0.5 mM Mg-ATP, 1 mM PMSF, 2 mM benzimidine, 1× complete protease inhibitor cocktail (Roche)). Cell suspensions were incubated with 1 mg/ml lysozyme and 5 mM β-mercaptoethanol on ice for 10 minutes, followed by sonication (3×30 sec). All subsequent procedures were performed at 4° C. Lysates were centrifuged at 40,000×g for 40 minutes. Supernatants were diluted and loaded onto an SP Sepharose column (Pharmacia, 5 ml cartridge) in buffer A (50 mM K-HEPES, pH 6.8, 1 mM MgCl2, 1 mM EGTA, 10 μM Mg-ATP, 1 mM DTT) and eluted with a 0 to 750 mM KCl gradient in buffer A. Fractions containing KSP were pooled and incubated with Ni-NTA resin (Qiagen) for one hour. The resin was washed three times with buffer B (Lysis buffer minus PMSF and protease inhibitor cocktail), followed by three 15-minute incubations and washes with buffer B. Finally, the resin was incubated and washed for 15 minutes three times with buffer C (same as buffer B except for pH 6.0) and poured into a column. KSP was eluted with elution buffer (identical to buffer B except for 150 mM KCl and 250 mM imidazole). KSP-containing fractions were pooled, made 10% in sucrose, and stored at −80° C.
Microtubules are prepared from tubulin isolated from bovine brain. Purified tubulin (>97% MAP-free) at 1 mg/ml is polymerized at 37° C. in the presence of 10 JAM paclitaxel, 1 mM DTT, 1 mM GTP in BRB80 buffer (80 mM K-PIPES, 1 mM EGTA, 1 mM MgCl2 at pH 6.8). The resulting microtubules are separated from non-polymerized tubulin by ultracentrifugation and removal of the supernatant. The pellet, containing the microtubules, is gently resuspended in 10 μM paclitaxel, 1 mM DTT, 50 μg/ml ampicillin, and 5 μg/ml chloramphenicol in BRB80.
The kinesin motor domain is incubated with microtubules, 1 mM ATP (1:1 MgCl2: Na-ATP), and compound at 23° C. in buffer containing 80 mM K-HEPES (pH 7.0), 1 mM EGTA, 1 mM DTT, 1 mM MgCl2, and 50 mM KCl. The reaction is terminated by a 2-10 fold dilution with a final buffer composition of 80 mM HEPES and 50 mM EDTA. Free phosphate from the ATP hydrolysis reaction is measured via a quinaldine red/ammonium molybdate assay by adding 150 μl of quench C buffer containing a 2:1 ratio of quench A:quench B. Quench A contains 0.1 mg/mil quinaldine red and 0.14% polyvinyl alcohol; quench B contains 12.3 mM ammonium molybdate tetrahydrate in 1.15 M sulfuric acid. The reaction is incubated for 10 minutes at 23° C., and the absorbance of the phospho-molybdate complex is measured at 540 nm.

| IC50 [µM] | SMILES |
| --- | --- |
| ≤ 50 | CN(C(=O)N1CC(c2cc(F)ccc2F)=C[C@@]1(CO)c1ccccc1)C1CCNCC1F (stereo in doubt) [Compound 10-2, (2S)-4-(2,5-Difluorophenyl)-N-[(3S,4R)-3-fluoropiperidin-4-yl]-2-(hydroxymethyl)-N-methyl-2-phenyl-2,5-dihydro-1H-pyrrole-1-carboxamide] |
| ≤ 50 | CN(C(=O)N1CC(c2cc(F)ccc2F)=C[C@@]1(CO)c1ccccc1)[C@@H]1CCNC[C@@H]1F [Compound 12-1, (2S)-4-(2,5-Difluorophenyl)-N-[(3S,4R)-3-fluoropiperidin-4-yl]-2-(hydroxymethyl)-N-methyl-2-phenyl-2,5-dihydro-1H-pyrrole-1-carboxamide] |
| ≤ 50 | CN1CC[C@@H](N(C)C(=O)N2CC(c3cc(F)ccc3F)=C[C@@]2(CO)c2ccccc2)[C@@H](F)C1 [Compound 4-2, (2S)-4-(2,5-Difluorophenyl)-N-[(3S,4R)-3-fluoro-1-methylpiperidin-4-yl]-2-(hydroxymethyl)-N-methyl-2-phenyl-2,5-dihydro-1H-pyrrole-1-carboxamide] |
| ≤ 50 | CN(C(=O)N1CC(c2cc(F)ccc2F)=C[C@@]1(CO)c1ccccc1)[C@@H]1CCNC[C@H]1F [Compound 12-2, (2S)-4-(2,5-Difluorophenyl)-N-[(3R,4R)-3-fluoropiperidin-4-yl]-2-(hydroxymethyl)-N-methyl-2-phenyl-2,5-dihydro-1H-pyrrole-1-carboxamide] |
| ≤ 50 | CC(C)N1CC[C@H](N(C)C(=O)N2CC(c3cc(F)ccc3F)=C[C@@]2(CO)c2ccccc2)[C@H](F)C1 [Compound 11-1, (2S)-4-(2,5-Difluorophenyl)-N-[(3R,4S)-3-fluoro-1-isopropylpiperidin-4-yl]-2-(hydroxymethyl)-N-methyl-2-phenyl-2,5-dihydro-1H-pyrrole-1-carboxamide] |
| ≤ 50 | CN(C(=O)N1CC(c2cc(F)ccc2F)=C[C@@]1(CO)c1ccccc1)[C@H]1CCNC[C@@H]1F [Compound 12-3, (2S)-4-(2,5-Difluorophenyl)-N-[(3S,4S)-3-fluoropiperidin-4-yl]-2-(hydroxymethyl)-N-methyl-2-phenyl-2,5-dihydro-1H-pyrrole-1-carboxamide] |
| ≤ 50 | CN1CC[C@@H](N(C)C(=O)N2CC(c3cc(F)ccc3F)=C[C@@]2(CO)c2ccccc2)[C@H](F)C1 (single isomer, unassigned) [Compound 5-3] |
| ≤ 50 | CN(C(=O)N1CC(c2cc(F)ccc2F)=C[C@@]1(CO)c1ccccc1)[C@H]1CC[N+](C)([O-])C[C@H]1F (stereo partly drawn) [Compound 9-1, (2S)-4-(2,5-Difluorophenyl)-N-[(3R,4S)-3-fluoro-1-methyl-1-oxidopiperidin-4-yl]-2-(hydroxymethyl)-N-methyl-2-phenyl-2,5-dihydro-1H-pyrrole-1-carboxamide] |
| ≤ 50 | CN1CC[C@H](N(C)C(=O)N2CC(c3cc(F)ccc3F)=C[C@@]2(CO)c2ccccc2)[C@H](F)C1 [Compound 3-1, (2S)-4-(2,5-Difluorophenyl)-N-[(3R,4S)-3-fluoro-1-methylpiperidin-4-yl]-2-(hydroxymethyl)-N-methyl-2-phenyl-2,5-dihydro-1H-pyrrole-1-carboxamide] |

| SMILES | IC50 [µM] |
| --- | --- |
| CN1CC[C@@H](N(C)C(=O)N2CC(c3cc(F)ccc3F)=C[C@H]2c2ccccc2)[C@@H](F)C1 [Compound 7-2, (2S)-4-(2,5-Difluorophenyl)-N-[(3S,4R)-3-fluoro-1-methylpiperidin-4-yl]-N-methyl-2-phenyl-2,5-dihydro-1H-pyrrole-1-carboxamide] | ≤ 50 |
| CN1CC[C@H](N(C)C(=O)N2CC(c3cc(F)ccc3F)=C[C@H]2c2ccccc2)[C@H](F)C1 [Compound 7-1, (2S)-4-(2,5-Difluorophenyl)-N-[(3R,4S)-3-fluoro-1-methylpiperidin-4-yl]-N-methyl-2-phenyl-2,5-dihydro-1H-pyrrole-1-carboxamide] | ≤ 50 |
| CN1CC[C@@H](N(C)C(=O)N2CC(c3cc(F)ccc3F)=C[C@H]2c2ccccc2)[C@H](F)C1 [Compound 7-3, (2S)-4-(2,5-Difluorophenyl)-N-[(3R,4R)-3-fluoro-1-methylpiperidin-4-yl]-N-methyl-2-phenyl-2,5-dihydro-1H-pyrrole-1-carboxamide] | ≤ 50 |
